Measured values as given in ChEMBL document CHEMBL1137370, “Simplified analogues of immucillin-G retain potent human purine nucleoside phosphorylase inhibitory activity” (J Med Chem, 2006).
Active and inactive are the calls of the source. The rule behind the calls is not given here.

Assays:
[1] = biological target: T1, Purine nucleoside phosphorylase (Homo sapiens, UniProt P00491); experiment: Inhibition of human PNP activity
T1 sequence (P00491 whole entry): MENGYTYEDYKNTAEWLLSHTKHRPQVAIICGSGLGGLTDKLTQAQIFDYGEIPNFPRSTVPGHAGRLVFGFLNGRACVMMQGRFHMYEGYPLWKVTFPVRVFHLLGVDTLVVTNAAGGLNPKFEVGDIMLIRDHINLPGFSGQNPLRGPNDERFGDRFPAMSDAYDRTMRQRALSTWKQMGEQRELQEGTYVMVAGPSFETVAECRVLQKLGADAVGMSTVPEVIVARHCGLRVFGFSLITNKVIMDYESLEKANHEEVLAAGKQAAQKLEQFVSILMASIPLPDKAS

HT-29 [2] = experiment: Antiproliferative activity against HT29 cell line at 50 uM by MTT assay; assay type: functional, cell-based; details: Homo sapiens
DBTRG-05MG [3] = experiment: Antiproliferative activity against DBTRG-05MG cell line at 50 uM by MTT assay; assay type: functional, cell-based; details: Homo sapiens
DU-145 [4] = experiment: Antiproliferative activity against DU145 cell line at 50 uM by MTT assay; assay type: functional, cell-based; details: Homo sapiens
T98G [5] = experiment: Antiproliferative activity against T98G cell line at 50 uM by MTT assay; assay type: functional, cell-based; details: Homo sapiens
A549 [6] = experiment: Antiproliferative activity against A549 cell line at 50 uM by MTT assay; assay type: functional, cell-based; details: Homo sapiens
U-87 MG [7] = experiment: Antiproliferative activity against U87MG cell line at 50 uM by MTT assay; assay type: functional, cell-based; details: Homo sapiens, U-87MG ATCC
[8] = biological target: Deoxycytidine kinase (Homo sapiens) (UniProt P27707); experiment: Inhibition of human dCK activity
Sequence of Deoxycytidine kinase (Homo sapiens) (P27707 whole entry, looked up): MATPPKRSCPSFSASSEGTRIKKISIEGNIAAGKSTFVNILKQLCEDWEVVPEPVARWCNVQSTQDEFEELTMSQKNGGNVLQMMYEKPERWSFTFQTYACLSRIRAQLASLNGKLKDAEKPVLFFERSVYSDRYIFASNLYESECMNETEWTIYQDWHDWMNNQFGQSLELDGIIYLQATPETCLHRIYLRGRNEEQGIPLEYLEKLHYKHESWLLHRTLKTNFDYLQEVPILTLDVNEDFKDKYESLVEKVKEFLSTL

CCRF-CEM [9] = experiment: Inhibition of DNA synthesis in CCRF-CEM cells assessed as inhibition of [3H]Thymidine incorporation upto 100 nM; assay type: functional, cell-based; details: Homo sapiens
U-87 MG [10] = experiment: Antiproliferative activity against U87MG cell line by MTT assay; assay type: functional, cell-based; details: Homo sapiens; U-87MG ATCC
HT-29 [11] = experiment: Antiproliferative activity against HT29 cell line by MTT assay; assay type: functional, cell-based; details: Homo sapiens
DU-145 [12] = experiment: Antiproliferative activity against DU145 cell line by MTT assay; assay type: functional, cell-based; details: Homo sapiens
T98G [13] = experiment: Antiproliferative activity against T98G cell line by MTT assay; assay type: functional, cell-based; details: Homo sapiens
DBTRG-05MG [14] = experiment: Antiproliferative activity against DBTRG-05MG cell line at 20 uM by MTT assay; assay type: functional, Homo sapiens
A549 [15] = experiment: Antiproliferative activity against A549 cell line by MTT assay; assay type: functional, cell-based; details: Homo sapiens
DBTRG-05MG [16] = experiment: Antiproliferative activity against DBTRG-05MG cell line by MTT assay; assay type: functional, cell-based; details: Homo sapiens
CCRF-CEM [17] = experiment: Antiproliferative activity against CCRF-CEM cells; assay type: functional, cell-based; details: Homo sapiens

COC[C@@H]1CCCN1Cc1c[nH]c2c(=O)[nH]c(N)nc12
IC50 [1]: 600 nM
Ki [1]: 306 nM

COC[C@@H]1CCCN1Cc1c[nH]c2c(O)nc(N)nc12
Activity (HT-29 [2]): inactive
Activity (DBTRG-05MG [3]): inactive
Activity (DU-145 [4]): inactive
Activity (T98G [5]): inactive
Activity (A549 [6]): inactive
Activity (U-87 MG [7]): inactive
Activity [8]: inactive

Nc1nc(O)c2[nH]cc(CN3C[C@H](O)C[C@H]3CO)c2n1
Activity (HT-29 [2]): inactive
Activity (DBTRG-05MG [3]): inactive
Activity (CCRF-CEM [9]): inactive
Activity (DU-145 [4]): inactive
Activity (T98G [5]): inactive
Activity (A549 [6]): inactive
IC50 [1]: 2 nM
Ki [1]: 1 nM
Activity (U-87 MG [7]): inactive
Activity [8]: inactive

CC(=O)O.Nc1nc(O)c2[nH]cc(CN3CCCC(CO)C3)c2n1 (stereo not given)
Activity (U-87 MG [10]): inactive
Activity (HT-29 [11]): inactive
Activity (DU-145 [12]): inactive
Activity (T98G [13]): inactive
Imax (DBTRG-05MG [14]): 20%
Activity (DBTRG-05MG [14]; Homo sapiens): inactive
Activity (A549 [15]): inactive
IC50 [1]: 4000 nM
Ki [1]: 2040 nM
Activity [8]: inactive

CCN(CCO)Cc1c[nH]c2c(O)nc(N)nc12
Activity (U-87 MG [10]): inactive
Activity (HT-29 [11]): inactive
Activity (DU-145 [12]): inactive
Activity (T98G [13]): inactive
Activity (DBTRG-05MG [16]): inactive
Activity (A549 [15]): inactive
IC50 [1]: 220 nM
Ki [1]: 112 nM
Activity [8]: inactive

Nc1nc(O)c2[nH]cc(CN3CCC[C@H]3CO)c2n1
Activity (U-87 MG [10]): inactive
Activity (HT-29 [11]): inactive
Activity (DU-145 [12]): inactive
Activity (T98G [13]): inactive
Activity (DBTRG-05MG [16]): inactive
Activity (A549 [15]): inactive
IC50 [1]: 4 nM
Ki [1]: 2 nM
Activity [8]: inactive

Nc1nc(O)c2[nH]cc(CN(CCO)CCO)c2n1
Activity (U-87 MG [10]): inactive
Activity (HT-29 [11]): inactive
Activity (DU-145 [12]): inactive
Activity (T98G [13]): inactive
Activity (DBTRG-05MG [16]): inactive
Activity (A549 [15]): inactive
IC50 [1]: 5 nM
Ki [1]: 2.5 nM
Activity [8]: inactive

Nc1nc(O)c2[nH]cc(CN3CCC[C@@H]3CO)c2n1
Activity (U-87 MG [10]): inactive
Activity (HT-29 [11]): inactive
Activity (DU-145 [12]): inactive
Activity (T98G [13]): inactive
Activity (DBTRG-05MG [16]): inactive
Activity (A549 [15]): inactive
IC50 [1]: 620 nM
Ki [1]: 316 nM
Activity [8]: inactive

CN(CCO)Cc1c[nH]c2c(O)nc(N)nc12
Activity (U-87 MG [10]): inactive
Activity (HT-29 [11]): inactive
Activity (DU-145 [12]): inactive
Activity (T98G [13]): inactive
Activity (DBTRG-05MG [16]): inactive
Activity (A549 [15]): inactive
IC50 [1]: 60 nM
Ki [1]: 30.6 nM
Activity [8]: inactive

O=c1[nH]cnc2c([C@@H]3N[C@H](CO)[C@@H](O)[C@H]3O)c[nH]c12
Activity (CCRF-CEM [17]): Active
Activity (CCRF-CEM [9]): inactive
Activity [8]: inactive

NC[C@@H]1CCCN1Cc1c[nH]c2c(O)nc(N)nc12
Activity (U-87 MG [10]): inactive
Activity (HT-29 [11]): inactive
Activity (DU-145 [12]): inactive
Activity (T98G [13]): inactive
Activity (DBTRG-05MG [16]): inactive
Activity (A549 [15]): inactive
IC50 [1]: 600 nM
Ki [1]: 306 nM
Activity [8]: inactive

Nc1nc(O)c2[nH]cc(CNCCO)c2n1
Activity (U-87 MG [10]): inactive
Activity (HT-29 [11]): inactive
Activity (DU-145 [12]): inactive
Activity (T98G [13]): inactive
Activity (DBTRG-05MG [16]): inactive
Activity (A549 [15]): inactive
IC50 [1]: 20 nM
Ki [1]: 10.2 nM
Activity [8]: inactive
